# Laboratory results published in patent publication US20020098520A1, “Cell tests and diagnostic index for alzheimer's disease” (priority 1993, published 2002).
# Where two headings read alike, the source gives them in different places.
# Assays:
# [1] = tested on: neuropathological non-AD fibroblasts
# 166 pS K^+ channel = assay: Patch-clamp, cell-free patches: channel sensitivity to blockers; format: cell-based, human; details: outside-out patches
# Method: (§1) Patch-clamp experiments were performed at room temperature (21-23° C.), following standard procedures set forth in Sakmann, B. and Neher, E. (1983) Single Channels Recordings (Plenum New York) and Kukuljan, M., et al. (1991) J. Membrane Biol. 119:187. Before recordings, […] culture medium was replaced with the following solution: 150 mM NaCl, 5 mM KCl, 2 mM CaCl2, 1 MM MgCl2, 10 mM HEPES […] pH=7.4. Pipettes were made from Blue Tip capillary tubes (I.D. 1.1-1.2 mm) using a BB-CH Mecanex puller, and then filled with a high potassium solution of 140 mM KCl, 2 mM CaCl2, 1 mM MgCl2, 10 mM HEPES (NaOH), pH=7.4. Pipette resistances were approximately 6 MΩ. Records were obtained using an Axopatch-1C amplifier (dc-10 kHz), stored on tape (Toshiba PCM-video recorder), and later transferred to a personal computer using an Axolab interface. Only recordings lasting for at least 3 minutes were considered for final analysis. The pClamp suite of programs was used for single-channel data acquisition and analysis. Amplifier, interface and software were obtained from Axon Instruments (Foster City, Calif.).
# 113 pS K^+ channel = assay: as above; format: cell-based, human; details: outside-out patches, n=4 YC, n=3 AC
# Method: as §1
# control fibroblasts = details: after 100 MM TEA addition, control cells n=4
# Method: as §1
# [2] = tested on: human skin fibroblasts (AD, AC, YC); details: for TEA Response Blind / TEA Response Non Blind: one cell line per table line
# Method: Thirteen AD, ten AC, and six YC were used for the calcium-imaging experiments. Culture medium was replaced and washed three times with basal salt solution (“BSS”) consisting of 140 mM NaCl, 5 mM KCl2.5 mM CaCl2, 1.5 mm MgCl2, 5 mM glucose, 10 mM HEPES (NaOH), pH 7.4. Nominally Ca^2+ free BSS was prepared as BSS without adding CaCl2.
# Fura-2 (acetyloxymethyl ester) (Fura-2AM) was purchased from Molecular Probes (Eugene, Oreg.) and stored as a 1 mM solution in dimethylsulfoxide. Fura-2AM was added to a final concentration of 2 µM and cells were incubated at room temperature (21°-23° C.) for 60 minutes. After incubation, cells were washed at least three times with BSS at room temperature before [Ca^2+]i determinations. Fluorescence was measured with a Hamamatsu ARGUS 50 imaging system (Hamamatsu Photonics, Japan) under the control of a personal computer (Hamamatsu imaging software package). Excitation at 340 nm and 380 nm was attenuated with neutral density filters. Fluorescent images were obtained with a 400 nm dichroic mirror and a 510 nm long-pass barrier filter. The objective lens was an X10 Nikon UV fluor. Fluorescence was measured within a uniformly illuminated fraction (¼) of the whole image.
# The averaged Ca^2+ responses within 15×15 pixels in cytosolic and in nuclear cellular compartments obtained were quantified with ratios between emitted 510 nm fluorescence activated at 340 nm and fluorescence emitted at 510 nm with activation at 380 nm. These ratios were transformed to absolute values of [Ca^2+], after calibration based on the following equation:
# R=Rmax+(Rmin−Rmax)/(1+([Ca^2+]i/Kd)^b).
# Here R denotes fluorescence intensity illuminated by 340 nm divided by fluorescence intensity illuminated by 380 nm (F340/F380), and Rmax and Rmin are the values of R when the concentration of calcium is at a maximum and a minimum (i.e., the maximum and minimum value measurable by the machine under the measuring conditions), respectively. Kd is a dissociation constant of fura-2 for Ca^2+ and was determined as 240 nM. The value of b, which determined the degree of asymmetry, was 1.2. […] A response of 100% [Ca^+2]i elevation in at least 10% of cells in a line was, therefore, considered to be a conservative criterion for a positive response.
# [3] = tested on: cultured fibroblasts (AD, controls, Es)
# Method: Culture medium was removed and cells were washed at least three times with BSS (in mM: NaCl 140, KCl 5, CaCl2 2.5, MgCl2 1.5, HEPES 10, Glucose 5, pH=7.4). The fluorescent probe was loaded by incubating the cells in 2 μM (in BSS) fura 2-AM (Molecular Probes) for 60 min at room temperature. After loading, cells were washed thoroughly with BSS or BSS-0 Ca^2+ (in mM: NaCl 140, KCl 5, CaCl2 0.1, MgCl2 1.5, EGTA 1, HEPES 10, Glucose 5, pH=7.4). After washes, 1 ml of fresh solution was added for intracellular Ca^2+ baseline measurements. […] This solution was adjusted in order to introduce no osmolality changes. […] Bradykinin (Calbiochem) in BSS and BSS-0 Ca^2+ (1 ml) was also used at concentrations of 100 pM, 1 nm and 10 nM. Fluorescent images at 340 and 380 nm were acquired at a rate of 2.6/sec. for 200 sec, with a Hamamatsu Argus 50 system (Hamamatsu Photonics). The objective lens was a 10×Nikon fluor. Only the ¼ evenly illuminated area of the whole image was acquired. Individual ratio values were obtained off-line for all cells within the area of interest. Three to five dishes of a given cell line were used for each experimental condition. The number of cells measured per cell line was at least 50. In most cases, experiments for each cell line were repeated on at least one separate occasion (minimum one week interval).
# [4] = 100 mM TEA, Age-Matched Control Fibroblasts
# [5] = 100 mM TEA, Young Control Fibroblasts
# [6] = Alzheimer's Patients, total 738 cells
# [7] = Young Controls, total 532 cells
smiles,measurement,setting,value
"CC[N+](CC)(CC)CC [TEA, tetraethylammonium]",TEA,[1]; Parkinson's donor cell line,+
same,TEA,"[1]; Schizophrenia donors, one cell line per table line",+
same,TEA,"[1]; Wernicke-Kors. donors, one cell line per table line",+
same,sensitivity of the 166 pS channel to TEA,166 pS K^+ channel,only the 113 PS channel was sensitive
same,sensitivity of the 113 pS channel to TEA,113 pS K^+ channel,sensitive
same,depolarization of control cells,control fibroblasts,13-20 mV
same,[Ca^2+]i elevation in response to TEA,"[2]; 1 mM TEA, YC fibroblasts",elevated
same,[Ca^2+]i elevation in response to TEA,"[2]; 10 mM TEA, AC fibroblasts",elevated
same,[Ca^2+]i elevation in response to TEA,"[2]; 10 mM TEA, YC fibroblasts",elevated
same,[Ca^2+]i elevation in response to TEA,"[2]; 100 mM TEA, AC fibroblasts",elevated
same,return of [Ca^2+]i to basal levels,"[2]; 100 mM TEA, YC and AC fibroblasts",100 s
same,[Ca^2+]i elevation in response to TEA,"[2]; 100 mM TEA, YC fibroblasts",elevated
same,TEA Response Blind,[2]; [4],+
same,TEA Response Non Blind,[2]; [4],+
same,TEA Response Blind,"[2]; 100 mM TEA, Alzheimer's Disease Fibroblasts",−
same,TEA Response Non Blind,"[2]; 100 mM TEA, Alzheimer's Disease Fibroblasts, criterion 100% elevation in at least 10% of cells",−
same,TEA Response Blind,[2]; [5],+
same,TEA Response Non Blind,[2]; [5],+
same,"Number of Cell Lines, Increase in [Ca^+2]i with 100 mM TEA","[2]; Aged Controls, total 10 cell lines",10
same,"Number of Cells, Increase in [Ca^+2]i with 100 mM TEA","[2]; Aged Controls, total 417 cells",119
same,"Percent of cells, Increase in [Ca^+2]i with 100 mM TEA","[2]; Aged Controls, total 417 cells",29%
same,"Number of Cell Lines, Increase in [Ca^+2]i with 100 mM TEA","[2]; Alzheimer's Patients, total 13 cell lines",0
same,"Number of Cells, Increase in [Ca^+2]i with 100 mM TEA",[2]; [6],4
same,"Percent of cells, Increase in [Ca^+2]i with 100 mM TEA",[2]; [6],0.5%
same,cells with a minimum of 100% [Ca^+2]i elevation,"[2]; TEA application, every control cell line except one young control",at least 18 % of cells
same,cells with 100% [Ca^+2]i elevation,"[2]; TEA application, the only AD cell line with any response",4 % of cells
same,"Number of Cell Lines, Increase in [Ca^+2]i with 100 mM TEA","[2]; Young Controls, total 6 cell lines",5
same,"Number of Cells, Increase in [Ca^+2]i with 100 mM TEA",[2]; [7],145
same,"Percent of cells, Increase in [Ca^+2]i with 100 mM TEA",[2]; [7],27%
same,% of responding cells in Es cell lines,"[3]; 100 mM TEA, 3 Es cell lines",lower % of responding cells
same,number of control cell lines with significant Ca^2+ elevations meeting CR,"[3]; 100 mM TEA, 11 control cell lines",11
same,number of AD cell lines that did not meet CR,"[3]; 100 mM TEA, 14 AD cell lines",10
same,% of responding cells in AD cell lines compared to controls,[3]; TEA-induced responses,significantly reduced
